60 molecules from patent US20240207300A1, “COMBINATION THERAPIES INCLUDING MYT1 INHIBITORS” (Repare Therapeutics Inc., priority 2021, published 2024) can be followed below.

By IC50 is commonly meant the concentration needed to halve the response being measured.

Molecules are shown by their SMILES.

The target in the assay is recombinant human Myt1 (Homo sapiens (Human), UniProt Q99640). The assay can be described thus: Recombinant human Myt1 kinase ADP-Glo enzymatic assay. It is filed as biochemical. The settings on record: recombinant human Myt1 18 nM, ATP 10 μM. Here is the method: Detection of Myt1 kinase activity utilized a recombinant human Myt1 kinase assay measuring the hydrolysis of ATP using a commercially available ADP-Glo Assay (ADP-Glo™ Kinase Assay from Promega, 10 000 assays, #V9102). […] After this, 5 μL of compounds (diluted in reaction buffer to 0.5% DMSO) was added to the microplate and the plate was spun briefly and incubated at 22° C. for 15 minutes. Ultra-Pure Adenosine Triphosphate (ATP) solution (ADP-Glo kit from Promega) was diluted in reaction buffer and 5 μL was added to the microplate, spun down briefly and incubated for 60 minutes at 30° C. […] After the 60-minute incubation, 15 μL of ADP-Glo reagent was added and the plate was spun briefly and sealed and incubated in the dark for 40 minutes at 22° C. […] Luminescence was read using the Envision (250 ms integration). The IC50 and the % max inhibition were calculated for each inhibitor compound tested.
Sequence of recombinant human Myt1 (Q99640 whole entry): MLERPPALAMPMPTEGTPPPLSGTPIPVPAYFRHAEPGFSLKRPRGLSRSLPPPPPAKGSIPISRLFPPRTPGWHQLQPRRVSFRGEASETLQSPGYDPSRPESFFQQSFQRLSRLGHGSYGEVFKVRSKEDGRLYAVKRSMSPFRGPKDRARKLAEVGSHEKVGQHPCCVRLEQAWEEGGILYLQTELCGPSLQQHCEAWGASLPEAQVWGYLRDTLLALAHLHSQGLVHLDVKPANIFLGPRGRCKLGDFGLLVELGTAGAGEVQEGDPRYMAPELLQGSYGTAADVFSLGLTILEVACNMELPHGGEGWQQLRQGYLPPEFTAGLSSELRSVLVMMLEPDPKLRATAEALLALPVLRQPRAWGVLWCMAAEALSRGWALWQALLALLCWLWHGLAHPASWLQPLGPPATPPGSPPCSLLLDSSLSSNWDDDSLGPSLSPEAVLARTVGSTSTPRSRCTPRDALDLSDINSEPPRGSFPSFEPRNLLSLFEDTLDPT
On the technique in general: In ADP-Glo the light output rises with the ADP produced.
On to `Cc1ccc(O)c(C)c1-n1c(N)c(C(N)=O)c2ncc(C#CC3OCCC3O)nc21` (stereo not drawn) [Compound 234], for which the IC50 worked out at 14 nM.
Turning to `Cc1ccc(O)c(C)c1-n1c(N)c(C(N)=O)c2cc(C#N)cnc21` [Compound 312], the IC50 was < 10 nM.
Then `Cc1ccc(O)c(Cl)c1-n1c(N)c(C(N)=O)c2cc(Cl)cnc21` [Compound 327], with < 10 nM; and `Cc1ccc(O)c(C)c1-n1c(N)c(C(N)=O)c2nc(-c3ccncn3)cnc21` [Compound 57], with < 10 nM.
Then `Cc1c(O)ccc(Cl)c1-n1c(N)c(C(N)=O)c2nc(-c3nccs3)cnc21` [Compound 42], with < 10 nM; and `Cc1ccc(O)c(C)c1-n1c(N)c(C(N)=O)c2cc(-c3nccs3)cnc21` [Compound 308], with < 10 nM; and `Cc1ccc(O)c(C)c1-n1c(N)c(C(N)=O)c2nc(-c3nc4ccccc4s3)cnc21` [Compound 248], with < 10 nM.
Consider `Cc1ccc(O)c(C)c1-n1c(N)c(C(N)=O)c2nc(-c3ccnc(C(F)(F)F)c3)cnc21` [Compound 35, 6-amino-5-(3-hydroxy-2,6-dimethyl-phenyl)-2-[2-(trifluoromethyl)-4-pyridyl]pyrrolo[2,3-b]pyrazine-7-carboxamide], for which the 50% inhibitory concentration (IC50) is < 10 nM.
Regarding `Cc1ccc(O)cc1-n1c(N)c(C(N)=O)c2nc(C3=CCCN(C(=O)OC(C)(C)C)C3)ccc21` [Compound 26], the IC50 amounted to 2000 nM.
Then `CNC(=O)C1CCN(c2cnc3c(n2)c(C(N)=O)c(N)n3-c2c(C)ccc(O)c2C)CC1` [Compound 46, 6-amino-5-(3-hydroxy-2,6-dimethyl-phenyl)-2-[4-(methylcarbamoyl)-1-piperidyl]pyrrolo[2,3-b]pyrazine-7-carboxamide], with < 10 nM; and `Cc1ccc(O)c(C)c1-n1c(N)c(C(N)=O)c2cccnc21` [Compound 328], with < 10 nM; and `Cc1nc2c(C(N)=O)c(N)n(-c3c(Cl)ccc(O)c3C)c2nc1C` [Compound 168], with < 10 nM.
For `C=C(C)c1cnc2c(n1)c(C(N)=O)c(N)n2-c1c(C)ccc(O)c1C` [Compound 202], the IC50 was < 10 nM.
To `Cc1ccc(O)c(C)c1-n1c(N)c(C(N)=O)c2nc(-c3ccc(F)cn3)cnc21` [Compound 64] belongs < 10 nM; to `Cc1ccc(-c2cnc3c(n2)c(C(N)=O)c(N)n3-c2c(C)ccc(O)c2C)nc1` [Compound 61], < 10 nM.
To `COCCOCC#Cc1cnc2c(n1)c(-c1c(C)ccc(O)c1C)c(N)n2C(N)=O` [Compound 240] belongs 191 nM; to `Cc1ccc(O)c(C)c1-n1c(N)c(C(N)=O)c2nc(-c3nccs3)c(C)nc21` [Compound 31, 6-amino-5-(3-hydroxy-2,6-dimethyl-phenyl)-3-methyl-2-thiazol-2-yl-pyrrolo[2,3-b]pyrazine-7-carboxamide], < 10 nM.
With `Cc1ccc(O)c(C)c1-n1c(N)c(C(N)=O)c2cc(-c3ccccn3)cnc21` [Compound 295], the IC50 was < 10 nM.
With `Cc1ccc(O)c(C)c1-n1c(N)c(C(N)=O)c2nc(N3CC4CCC(C3)O4)cnc21` [Compound 92], the IC50 was < 10 nM.
With `Cc1ccc(O)c(C)c1-n1c(N)c(C(N)=O)c2nc(-c3c[nH]cn3)cnc21` [Compound 65], the IC50 is < 10 nM.
Then `Cc1ccc(O)c(C)c1-n1c(N)c(C(N)=O)c2c(Cl)c(Cl)cnc21` [Compound 316], with < 10 nM; and `Cc1ccc(O)c(C)c1-n1c(N)c(C(N)=O)c2cc(Br)c(C)nc21` [Compound 187], with < 10 nM; and `Cc1ccc(O)c(C)c1-n1c(N)c(C(N)=O)c2c(C)c(Cl)cnc21` [Compound 313], with < 10 nM.
For the molecule `Cc1ccc(O)c(C)c1-n1c(N)c(C(N)=O)c2cc(Br)cnc21` [Compound 141], the IC50 is < 10 nM.
To `Cc1ccc(O)c(C)c1-n1c(N)c(C(N)=O)c2cc(N3CCCC3=O)cnc21` [Compound 298] belongs < 10 nM; to `Cc1ccc(O)c(C)c1-n1c(N)c(C(N)=O)c2nc(C3CCC3)cnc21` [Compound 173, 6-amino-2-cyclobutyl-5-(3-hydroxy-2,6-dimethyl-phenyl)pyrrolo[2,3-b]pyrazine-7-carboxamide], < 10 nM.
Regarding `Cc1ccc(O)c(C)c1-n1c(N)c(C(N)=O)c2cc(Br)c(C)nc21` (single isomer, unassigned) [Compound 188], the IC50 is < 10 nM.
Then `Cc1ccc(O)c(C)c1-n1c(N)c(C(N)=O)c2nc3c(nc21)CCCC3` [Compound 262], with < 10 nM; and `Cc1ccc(O)c(C)c1-n1c(N)c(C(N)=O)c2ncc(C#CC3(O)CCC(F)(F)CC3)nc21` [Compound 242, 6-amino-3-[2-(4,4-difluoro-1-hydroxy-cyclohexyl)ethynyl]-5-(3-hydroxy-2,6-dimethyl-phenyl)pyrrolo[2,3-b]pyrazine-7-carboxamide], with < 10 nM; and `Cc1ccc(O)c(Cl)c1-n1c(N)c(C(N)=O)c2nc(C3CC3)cnc21` [Compound 104], with < 10 nM.
Then `Cc1ccc(O)c(C)c1-n1c(N)c(C(N)=O)c2nc(C(C)(C)F)cnc21` [Compound 178, 6-amino-2-(1-fluoro-1-methyl-ethyl)-5-(3-hydroxy-2,6-dimethyl-phenyl)pyrrolo[2,3-b]pyrazine-7-carboxamide], with < 10 nM.
To `Cc1ccc(O)c(C)c1-n1c(N)c(C(N)=O)c2nc(C3CC3)c(C)nc21` [Compound 100] belongs < 10 nM; to `Cc1ccc(O)c(C)c1-n1c(N)c(C(N)=O)c2ncc(C#CC3OCCC3Cl)nc21` (stereo not drawn) [Compound 233], 10 nM; to `Cc1ccc(O)c(C)c1-n1c(N)c(C(N)=O)c2ncc(C#CC3(O)CCOCC3)nc21` [Compound 231], < 10 nM.
`Cc1ccc(O)c(C)c1-n1c(N)c(C(N)=O)c2ncc(C#CCC3CCOCC3)nc21` [Compound 222]: the IC50 was < 10 nM.
To `Cc1ccc(O)c(C)c1-n1c(N)c(C(N)=O)c2nc(-c3ccnnc3)cnc21` [Compound 250] belongs < 10 nM.
To `Cc1ccc(O)c(C)c1-n1c(N)c(C(N)=O)c2nc(C3=CCC(C(=O)N(C)C)CC3)cnc21` (stereo not drawn) [Compound 58] belongs < 10 nM.
Then `Cc1ccc(O)c(C)c1-n1c(N)c(C(N)=O)c2nc(-c3cncs3)cnc21` [Compound 37], with < 10 nM; and `Cc1ccc(O)c(C)c1-n1c(N)c(C(N)=O)c2nc(C3CCCCC3)cnc21` [Compound 83], with < 10 nM; and `Cc1ccc(O)c(C)c1-n1c(N)c(C(N)=O)c2cc(C3=CCOCC3)cnc21` [Compound 304], with < 10 nM.
As for `Cc1ccc(O)c(C)c1-n1c(N)c(C(N)=O)c2nc(-c3cnccn3)cnc21` [Compound 38], the IC50 was < 10 nM.
Then `C=Cc1cnc2c(n1)c(C(N)=O)c(N)n2-c1c(C)ccc(O)c1C` [Compound 259], with < 10 nM.
Then `Cc1ccc(O)c(C)c1-n1c(N)c(C(N)=O)c2nc(N3CCCC3)cnc21` [Compound 85], with < 10 nM; and `Cc1ccc(O)c(C)c1-n1c(N)c(C(N)=O)c2nc(N3CCCCC3)cnc21` [Compound 81], with < 10 nM; and `Cc1ccc(O)c(C)c1-n1cc(C(N)=O)c2cc(C3CC3)cnc21` [Compound 143], with < 10 nM.
To `Cc1ccc(O)c(C)c1-n1c(N)c(C(N)=O)c2nc(-c3ccccn3)cnc21` [Compound 34] belongs < 10 nM.
On to `Cc1ccc(O)c(C)c1-n1c(N)c(C(N)=O)c2nc(C3(C(F)(F)F)CC3)cnc21` [Compound 198, 6-amino-5-(3-hydroxy-2,6-dimethyl-phenyl)-2-[1-(trifluoromethyl)cyclopropyl]pyrrolo[2,3-b]pyrazine-7-carboxamide], for which the IC50 is < 10 nM.
To `CCN(CC)c1cnc2c(n1)c(C(N)=O)c(N)n2-c1c(C)ccc(O)c1C` [Compound 88] belongs < 10 nM; to `Cc1ccc(O)c(C)c1-n1c(N)c(C(N)=O)c2cc(C(C)C)cnc21` [Compound 138], < 10 nM.
Take `Cc1ccc(O)c(C)c1-n1c(N)c(C(N)=O)c2cc(I)cnc21` [Compound 319]: the IC50 is < 10 nM.
Then `Cc1ccc(O)c(C)c1-n1c(N)c(C(N)=O)c2nc(-c3nc(C)c(C)s3)cnc21` [Compound 32], with < 10 nM.
Then `Cc1ccc(O)c(Br)c1-n1c(N)c(C(N)=O)c2cc(Cl)cnc21` [Compound 289], with < 10 nM.
Then `Cc1ccc(O)c(C)c1-n1c(N)c(C(N)=O)c2nc(C(N)=O)cnc21` [Compound 220, 6-amino-5-(3-hydroxy-2,6-dimethyl-phenyl)pyrrolo[2,3-b]pyrazine-2,7-dicarboxamide], with < 10 nM.
For `Cc1ccc(O)c(C)c1-n1c(N)c(C(N)=O)c2nc(C3=CCCCC3)cnc21` [Compound 86], the IC50 is < 10 nM.
Then `Cc1ccc(O)c(C)c1-n1c(N)c(C(N)=O)c2nc(-c3ccns3)cnc21` [Compound 41], with < 10 nM.
Regarding `CC(=O)N1CCN(c2cnc3c(n2)c(C(N)=O)c(N)n3-c2c(C)ccc(O)c2C)CC1` [Compound 87], the IC50 is < 10 nM.
With `Cc1ccc(O)c(C)c1-n1c(N)c(S(C)(=O)=O)c2nc(-c3cnccn3)cnc21` [Compound 278], the IC50 was > 5000 nM.
Then `Cc1ccc(O)c(C)c1-n1c(N)c(C(N)=O)c2cc(S(=O)(=O)C3CC3)cnc21` [Compound 311], with < 10 nM; and `Cc1ccc(O)c(C)c1-n1c(N)c(C(N)=O)c2cc(Br)c(C)nc21` (single isomer, unassigned) [Compound 189], with 1010 nM.
In the case of `Cc1ccc(O)c(C)c1-n1c(N)c(C(N)=O)c2cc(C(C)(C)O)cnc21` [Compound 131], the concentration for half-maximal inhibition (IC50) is < 10 nM.
